Reference: ChEMBL document CHEMBL1201862, “PubChem BioAssay data set” (2004)
“And” between values parts separate entries of the source, which are not always exact repeats. Equal entries are not always repeated.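 Following 48 hours of exposure in 96-well plates, responses at five concentrations were used to interpolate endpoints linearly. The concentration for 50% growth inhibition is given as GI50.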 The source made the active and inactive calls. Rule as the data show it: active = GI50 up to about 1.1 µM and inactive = higher.

Experiments:
Assay in all cases: DTP human tumour cell line panel, 48 h
SR = system: SR
K562 = system: K562
RXF 393 = system: RXF 393
NCI-H23 = system: NCI-H23
ACHN = system: ACHN
HOP-62 = system: HOP-62
SNB-78 = system: SNB-78
RXF 631 = system: RXF 631
NCI-H522 = system: NCI-H522
HCT-15 = system: HCT-15
LOX IMVI = system: LOX IMVI
A549 = system: A549
U-251 = system: U-251
OVCAR-5 = system: OVCAR-5
UO-31 = system: UO-31
UACC-257 = system: UACC-257
KM12 = system: KM12
HT-29 = system: HT-29
NCI-H226 = system: NCI-H226
HCC 2998 = system: HCC 2998
RPMI-8226 = system: RPMI-8226
NCI-H460 = system: NCI-H460
CCRF-CEM = system: CCRF-CEM
UACC-62 = system: UACC-62
LXFL 529 = system: LXFL 529
M14 = system: M14
DLD-1 = system: DLD-1
SF-268 = system: SF-268
DMS-114 = system: DMS-114
TK-10 = system: TK-10
SF-539 = system: SF-539
CAKI-1 = system: CAKI-1
SW-620 = system: SW-620
SF-295 = system: SF-295
COLO 205 = system: COLO 205
SK-MEL-28 = system: SK-MEL-28
XF498 = system: XF498
Malme-3M = system: Malme-3M
HOP-92 = system: HOP-92
786-0 = system: 786-0
SK-OV-3 = system: SK-OV-3
SNB-75 = system: SNB-75
HL-60 = system: HL-60
MOLT-4 = system: MOLT-4
IGROV-1 = system: IGROV-1
SNB-19 = system: SNB-19
OVCAR-4 = system: OVCAR-4
SK-MEL-5 = system: SK-MEL-5
M19-MEL = system: M19-MEL
SK-MEL-2 = system: SK-MEL-2
DMS-273 = system: DMS-273
EKVX = system: EKVX
HCT-116 = system: HCT-116
A498 = system: A498
KM-20L2 = system: KM-20L2

Measured: GI50

Nc1nnc(N)n1N
> 100 µM: HCT-15
inactive: SR > 100 µM | K562 > 100 µM | RXF 393 > 100 µM | NCI-H23 > 100 µM | ACHN > 100 µM | HOP-62 > 100 µM | SNB-78 > 100 µM | RXF 631 > 100 µM | NCI-H522 > 100 µM | LOX IMVI > 100 µM | A549 > 100 µM | U-251 > 100 µM | OVCAR-5 > 100 µM | UO-31 > 100 µM | UACC-257 > 100 µM | KM12 > 100 µM | HT-29 > 100 µM | NCI-H226 > 100 µM | HCC 2998 > 100 µM | RPMI-8226 > 100 µM | NCI-H460 > 100 µM | CCRF-CEM > 100 µM | UACC-62 > 100 µM | LXFL 529 > 100 µM | M14 > 100 µM | DLD-1 > 100 µM | SF-268 > 100 µM | DMS-114 > 100 µM | TK-10 > 100 µM | SF-539 > 100 µM | CAKI-1 > 100 µM | SW-620 > 100 µM | SF-295 > 100 µM | COLO 205 > 100 µM | SK-MEL-28 > 100 µM | XF498 28.8 µM | Malme-3M > 100 µM | HOP-92 > 100 µM | 786-0 > 100 µM | SK-OV-3 > 100 µM | SNB-75 > 100 µM | HL-60 > 100 µM | MOLT-4 > 100 µM | IGROV-1 > 100 µM | SNB-19 > 100 µM | OVCAR-4 > 100 µM | SK-MEL-5 > 100 µM | M19-MEL > 100 µM | SK-MEL-2 > 100 µM | DMS-273 > 100 µM | EKVX > 100 µM | HCT-116 > 100 µM

Cc1cc(Cl)cc2c1NC(=O)C2(O)C(C(=O)c1ccccc1)c1ccccc1 (stereo unspecified)
inactive: K562 33.5 µM | NCI-H23 52.5 µM and 38.6 µM | HOP-62 82 µM and 47.3 µM | SNB-78 41.8 µM and 56.6 µM | RXF 631 37.8 µM and 70.1 µM | NCI-H522 36.5 µM | LOX IMVI 19.3 µM and 33 µM | OVCAR-5 > 100 µM | KM12 47.6 µM and 60.4 µM | A498 27.7 µM | HT-29 35.2 µM and 39.8 µM | NCI-H226 36.4 µM and 27.3 µM | HCC 2998 23.9 µM and 29.9 µM | RPMI-8226 17.4 µM and 22.9 µM | CCRF-CEM 26.7 µM | UACC-62 17.3 µM | DLD-1 53.8 µM and 42.3 µM | DMS-114 22.9 µM and 25.6 µM | TK-10 > 100 µM and 84.7 µM | SF-539 21 µM | SW-620 44.7 µM and 76 µM | SF-295 45.7 µM and 67.8 µM | XF498 36.4 µM and 28.7 µM | SK-OV-3 56.6 µM | SNB-75 24.7 µM and 21.7 µM | HL-60 20.1 µM | MOLT-4 16 µM | IGROV-1 26.2 µM | SNB-19 77.6 µM | OVCAR-4 20.4 µM and 35.5 µM | KM-20L2 88.9 µM | SK-MEL-5 21.2 µM | M19-MEL 3.4 µM | SK-MEL-2 44.8 µM and 32.3 µM | DMS-273 55.8 µM | EKVX 49.8 µM and 67.8 µM | HCT-116 23.4 µM
71.3 µM and 46.7 µM: HCT-15
